Laboratory results as given in PubChem BioAssay (NCI).
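Compound exposure: 48 hours, 5 concentrations, 96-well plates. TGI denotes the concentration required for complete inhibition of growth.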

Experiments:
Test in all cases: NCI tumour cell line growth inhibition, 48 h
NCI/ADR-RES ovarian = tested on: NCI/ADR-RES ovarian
DU-145 prostate = tested on: DU-145 prostate
HL-60(TB) leukemia = tested on: HL-60(TB) leukemia
SW-620 colon = tested on: SW-620 colon
U251 CNS = tested on: U251 CNS
HOP-92 NSCLC = tested on: HOP-92 NSCLC
SN12C renal = tested on: SN12C renal
RPMI-8226 leukemia = tested on: RPMI-8226 leukemia
COLO 205 colon = tested on: COLO 205 colon
SF-295 CNS = tested on: SF-295 CNS
MALME-3M melanoma = tested on: MALME-3M melanoma
SNB-19 CNS = tested on: SNB-19 CNS
ACHN renal = tested on: ACHN renal
NCI-H226 lung = tested on: NCI-H226 lung
UO-31 renal = tested on: UO-31 renal
IGROV1 ovarian = tested on: IGROV1 ovarian
A498 renal = tested on: A498 renal
SK-OV-3 ovarian = tested on: SK-OV-3 ovarian
MDA-MB-435 = tested on: MDA-MB-435
CCRF-CEM leukemia = tested on: CCRF-CEM leukemia
OVCAR-3 ovarian = tested on: OVCAR-3 ovarian
MCF7 breast = tested on: MCF7 breast
SNB-75 CNS = tested on: SNB-75 CNS
BT-549 breast = tested on: BT-549 breast
UACC-62 melanoma = tested on: UACC-62 melanoma
HOP-62 NSCLC = tested on: HOP-62 NSCLC
786-0 renal = tested on: 786-0 renal
NCI-H23 lung = tested on: NCI-H23 lung
SK-MEL-2 melanoma = tested on: SK-MEL-2 melanoma
HT29 colon = tested on: HT29 colon
UACC-257 melanoma = tested on: UACC-257 melanoma
SR leukemia = tested on: SR leukemia
HCT-15 colon = tested on: HCT-15 colon
KM12 colon = tested on: KM12 colon
EKVX NSCLC = tested on: EKVX NSCLC
NCI-H460 lung = tested on: NCI-H460 lung
OVCAR-4 ovarian = tested on: OVCAR-4 ovarian
MOLT-4 leukemia = tested on: MOLT-4 leukemia
T-47D breast = tested on: T-47D breast
SF-268 CNS = tested on: SF-268 CNS
MDA-MB-231 breast = tested on: MDA-MB-231 breast
NCI-H522 lung = tested on: NCI-H522 lung
OVCAR-8 ovarian = tested on: OVCAR-8 ovarian
SF-539 CNS = tested on: SF-539 CNS
HCC-2998 colon = tested on: HCC-2998 colon
K-562 leukemia = tested on: K-562 leukemia
CAKI-1 renal = tested on: CAKI-1 renal
HS 578T breast = tested on: HS 578T breast
HCT-116 colon = tested on: HCT-116 colon
M14 melanoma = tested on: M14 melanoma
OVCAR-5 ovarian = tested on: OVCAR-5 ovarian
RXF 393 renal = tested on: RXF 393 renal
PC-3 prostate = tested on: PC-3 prostate
SK-MEL-5 melanoma = tested on: SK-MEL-5 melanoma
SK-MEL-28 melanoma = tested on: SK-MEL-28 melanoma
TK-10 renal = tested on: TK-10 renal
MDA-N = tested on: MDA-N
A549 NSCLC = tested on: A549 NSCLC
LOX IMVI melanoma = tested on: LOX IMVI melanoma

Measured: TGI

C1CSC2=C(S1)SC1=C(S2)SC(=C2SC3=C(SC4=C(SCCS4)S3)S2)S1
not listed: LOX IMVI melanoma
> 100 µM: all other assays above

CCCCCCCCCCCCCCCCOCC(Cl)CP(=O)(O)OP(=O)(O)OCC1OC(n2cnc3c(N)ncnc32)C(O)C1O (stereo not given)
not listed: RPMI-8226 leukemia | SF-295 CNS
> 100 µM: all other assays above
